Data set [1] deals with pathogens isolated from the infected tissues of DFU patients. As to the kind of experiment: Antibacterial test on pathogens from infected DFU tissues. It is filed as cell-based. As to the method: The varied colours and morphologies highlight the presence of multiple species and a diverse bacterial population within the infected tissues. Method: Freshly debrided infected tissues from DFU patients are weighed and immersed in 2 ml of MHB (Mueller-Hinton Broth) media for 48 hours to soften the tissues, facilitating the release of bacteria. These samples are subsequently sonicated for 1 minute at a 15A amplitude using a water bath sonicator to release the bacteria. The resultant slurry is plated on MHB media supplemented with 1.5% agar to isolate all bacteria. These bacterial isolates are then evaluated for their antibacterial efficacy following the CLSI (Clinical and Laboratory Standards Institute) guidelines.
In some examples, the effective bacteria killing concentration range for the variant peptides can be, but is not limited to at least about 1.5 μM, at least about 2 μM, at least about 2.5 μM, at least about 5 μM, at least about 7.5 μM, at least about 10 μM, at least about 12.5 μM, at least about 15 μM, at least about 15 μM, at least about 17.5 μM, at least about 20 μM, at least about 25 μM, at least about 35 μM, or at least about 45 μM. In one example, the effective biofilm disruption concentration ranges from about 1.5 μM-25 μM or 1.5 μM-50 μM. In another example, the concentration is between about 40 μM to 50 μM.

In data set [2] the test system is Staphylococcus aureus (SA). As to the kind of experiment: Antimicrobial resistance evolution assay, SA. It is filed as cell-based. The note with it: serial passaging; resistance = >4-fold MIC change. From the text:
The development of antimicrobial resistance is defined by greater than a 4-fold change to their initial minimum inhibitory concentration (MIC) at day 1. Exemplary bacteria strains Pseudomonas aeruginosa (PA) and Staphylococcus aureus (SA) are subjected to continuous daily serial passaging over several days, with treatment of exemplary variant peptides E1AM2 (SEQ ID NO: 2) and Q19L (SEQ ID NO: […]) at subinhibitory concentrations. […] The treatments were discontinued when the MIC increased by more than four-fold from the initial MIC or when MIC reached >100 μM.
Briefly, sequential passaging of PA, and SA cells was done with sub-inhibitory concentrations of antibiotics or E1AM2 up to 4 weeks. The cells grown in those concentrations of antibiotics or peptides were diluted to A600 nm (OD600) of ~0.2 and serially passaged daily with the same concentrations at 37° C. with agitation at 24 h intervals.

In data set [3] the test system is Staphylococcus aureus (SA). In words: Broth microdilution anti-bacterial assay (CLSI), Staphylococcus aureus. It is filed as cell-based. The note with it: SA; for MIC: overnight, 37° C., ≥99% inhibition; for MBC: ≥99% killing.
The test system of a further data set is bacteria. In words: Comparison of lead peptide to standard of care (Table 16).
The subject of data set [4] is Pseudomonas aeruginosa (PA). In words: Murine excisional wound infection model (PA). The settings on record: mouse; 1x MBC (6.25 μM), 24 h treatment, vs PBS; p<0.05. It is filed as in vivo, mouse infected with Pseudomonas aeruginosa. As to the method: Excisional wounds in mice are infected with Pseudomonas aeruginosa (PA) for 24 hrs followed by 24 hrs of treatment with E1AM2 or PBS. Each circle represents a single mouse. Statistical analysis was performed by the two-tailed t-test using GraphPad, *p<0.05.
Excisional wounds infected with PA for 24 hours being treated for 24 hours with the E1AM2 V8LQ19L hydrogel at its 1X MBC concentration, compared with hydrogel-only treatment in a mouse model. […] Each circle in the graph represents one mouse. Statistical significance was determined using a t-test, with *p<0.05. The data are presented as colony-forming unit counts presented as means±SEM. […] Collectively, the E1AM2 V8LQ19L peptide showcases unique functionality, combining antibacterial effectiveness and biocompatibility for dermal applications.
The murine wound infection model was carried out as described in 4 with minor modifications. Before infection, PA strain was diluted to an OD ~0.5, and normalized to 1-3×10^7 CFU/ml. A 6 mm biopsy punch (Integra Miltex, New York, USA) was used to create a full-thickness wound, and an inoculum of ~10^5 CFU of the bacteria in a 5 μl volume was applied. The wound was sealed with a Finn chamber on a Scanpor tape (Smart Practice, Phoenix, AZ, USA), and the chamber was fixed to the skin via Tegaderm patch (3M™, Minnesota, USA). […]

The results in this text go back to patent publication US20260327263A1, “Anti-Bacterial Peptides” (priority 2023, published 2026).

The term MIC denotes the least concentration at which growth counts as inhibited. A low value points to inhibition by little substance. In general, MBC refers to the smallest concentration meeting the test's criterion for killing. A higher MBC goes with weaker bactericidal potency.

Several values for one entry are separate records, joined by “and”; a condition that tells them apart may be missing. Equal values may be shown once. Entries after “also recorded” stand apart in the source; their conditions may differ. Where no end group is shown, it is not given here.

Consider KKLLKKWLKLSKKALKLALSL-NH2 [V8LQ19L], for which the “elimination of pathogens in DFU tissue (in words)” value in data set [1] (FIG. 11) is listed as “effective elimination of pathogens”. Moreover, in data set [1] (at 50 μM), the “elimination of bacteria from DFU tissue” value is listed as “over 99%”. In addition, the “development of antimicrobial resistance, SA” value in data set [2] was “effective in preventing the acquisition of AMR”. Also, in data set [3], the MIC is 1.56 µM and the MBC worked out at 1.56 µM. In data set [3] (listed as VBLQ19L), this substance came in with an MIC of 1.56 µM and a minimum bactericidal concentration (MBC) of 1.56 µM. Moreover, in the data set with bacteria, the “AMR Prevention” value is “Yes”, the “Negligible Cytotoxicity” value is “Yes”, the “No Allergic/Adverse Reactions” value is “Yes” and the Targeted bacteria-specific eradication result was “Yes”. Besides, the “Wound Healing Support” value in the data set with bacteria is “Yes”. The “Antibacterial Efficacy” value in the data set with bacteria (Broad- (spectrum continues on next line)) is recorded as “Broad-”.

Turning to “E1AM2: untagged (E1AM2), KKLLKKWVKLSKKALKLAQSL”, the “PA infection at wound site (CFU)” value in data set [4] is recorded as “effective reduction of PA infection; also recorded: significant bacterial clearance at the wound site”. In data set [3], the MIC is 6.25 µM and 6.28 µM; the MBC came out at 12.5 µM.
